Data reported in publication PMC6620326, “Structural characterization of life-extending Caenorhabditis elegans Lipid Binding Protein 8” (Scientific Reports, 2019).

Experiments:
LBP-8 [1] = target: T1, LBP-8 (Caenorhabditis elegans, UniProt O02324); assay: […],8-ANS fluorescence displacement; format: binding; conditions: PBS pH 8.0, 37 °C, 250 nM protein, 800 nM 1,8-ANS, 1% ethanol; refolded delipidated protein; competitive with 1,8-ANS
T1 construct: full-length residues 1-137, pMCSG7 His6-TEV, E. coli BL21(DE3); His tag cleaved by TEV
T1 sequence (O02324 1-137): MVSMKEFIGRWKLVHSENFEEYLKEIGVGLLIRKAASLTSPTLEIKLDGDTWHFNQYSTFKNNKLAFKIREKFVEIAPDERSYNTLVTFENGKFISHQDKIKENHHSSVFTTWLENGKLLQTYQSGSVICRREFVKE

LBP-8 [2] = target: T1, LBP-8; assay: differential scanning fluorimetry, SYPRO orange; format: binding; conditions: 20 µM ligand, 7 µM refolded protein, 1% ethanol; destabilising shift

| decrease in Tm vs apo (LBP-8 [2]) | SMILES | Ki (LBP-8 [1]) |
| --- | --- | --- |
| ~ 4 °C | CCCCCCCC/C=C\CCCCCCCC(=O)O [OA, oleic acid] | oleic acid and OEA, and both had very similar Ki’s |
|  | CCCCCCCC/C=C\CCCCCCCC(=O)NCCO [OEA, oleoylethanolamide] | oleic acid and OEA, and both had very similar Ki’s |
